From US12637435B2, “Nitrogen-containing heterocyclic compound or salt thereof, use thereof, and intermediate thereof” (FUJIFILM Corporation, priority 2020, dated 2026)

Experiments:
[1] = test system: human myeloid leukemia cell line HL60; assay: Cell growth test, HL60 (CellTiter-Glo); assay type: cell-based; settings: HL-60, 72 h, HL60 cells, 3 days, CellTiter-Glo luminescence, read-out: Cell growth inhibitory effect (GI50)
Protocol: The cell growth test was carried out using the human myeloid leukemia cell line HL60 (available from ATCC, CRL-240). As a culture medium of HL60 cells, RPMI 1640 (available from FUJIFILM Wako Pure Chemical Corporation, 189-02025) supplemented with 10% fetal bovine serum (available from Thermo Fisher Scientific, Inc., 10437-028), and 1% penicillin-streptomycin (10,000 U/mL, available from Thermo Fisher Scientific, Inc., 15140-122) was used. HL60 cells were seeded on a 384-well plate (available from Corning Inc., 4588) at a cell density of 1×10^3 cells/20 μL/well. After culturing overnight, 5 μL of the test compound having a predetermined concentration was added, and 3 days later, 25 μL of CellTiter-Glo (registered trademark) Luminescent Cell Viability Assay (available from Promega Corporation, G7573) was added, and then the amount of luminescence was measured using an EnVision plate reader (available from PerkinElmer, Inc.). Since the amount of luminescence is proportional to the intracellular concentration of adenosine triphosphate (ATP), the amount of luminescence was used as an indicator of the number of viable cells. The growth inhibitory concentration for each test compound concentration was calculated by the following expression.
(§1) The growth inhibition rate at each test compound concentration was determined, and the 50% growth inhibitory concentration [GI50 (nmol/L)] was calculated using XLfit. Growth inhibition rate (%)=(amount of luminescence in test compound-added well)/(amount of luminescence in DMSO-added well)×100
The abbreviations in the table have the following meanings. • A: GI50 value<100 nmol/L • B: 100 nmol/L≤GI50 value<1,000 nmol/L • C: 1,000 nmol/L≤GI50 value

recombinant human DHODH = biological target: T1, recombinant human DHODH (Homo sapiens, UniProt Q02127); assay: DHODH enzyme reaction inhibition test (DCIP-coupled assay); assay type: biochemical; settings: recombinant human DHODH 0.175 μg/mL, DCIP absorbance 600 nm, 50 minutes, pH 8.0; read-out: Enzyme reaction inhibitory effect (IC50)
T1 construct: DHODH, 31-395aa, Human, His tag, E. coli, ATGP1615; His tag; purchased ATGen Co. Ltd. ATGP1615; host or cells: E. coli
T1 sequence (Q02127 31-395): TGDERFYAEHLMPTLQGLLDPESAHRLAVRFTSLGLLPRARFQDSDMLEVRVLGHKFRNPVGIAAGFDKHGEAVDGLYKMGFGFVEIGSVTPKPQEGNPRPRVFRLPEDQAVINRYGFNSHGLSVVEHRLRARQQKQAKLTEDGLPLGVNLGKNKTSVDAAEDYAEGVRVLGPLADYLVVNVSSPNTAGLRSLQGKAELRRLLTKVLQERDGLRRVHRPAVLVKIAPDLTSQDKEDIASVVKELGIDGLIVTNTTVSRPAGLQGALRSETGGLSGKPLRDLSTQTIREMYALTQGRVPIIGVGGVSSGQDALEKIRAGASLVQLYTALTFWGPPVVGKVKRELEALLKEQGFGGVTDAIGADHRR
Protocol: The DHODH enzyme assay was carried out with reference to “Benjamin Bader, Wolfgang Knecht, Markus Fries, and Monika Loffler, Expression, Purification, and Characterization of Histidine-Tagged Rat and Human Flavoenzyme Dihydroorotate Dehydrogenase, Protein Expression and Purification, 1998, 13, 414-422.”
The DHODH activity was evaluated using an enzyme assay system that is coupled with an assay in which a blue coloring agent 2,6-dichlorophenolindophenol (DCIP, available from MP Biomedicals, LLC, MP150118) is quenched. Purified recombinant human DHODH (DHODH, 31-395aa, Human, His tag, E. coli, ATGP1615) was purchased from ATGen Co. Ltd. The enzyme assay was carried out in a 384-well plate using a buffer solution containing 100 mmol/L Hepes (available from Dojindo Laboratories, 342-01375), 400 mmol/L NaCl (available from FUJIFILM Wako Pure Chemical Corporation, 191-01665), 10% Glycerol (available from FUJIFILM Wako Pure Chemical Corporation, 075-00616), 0.05% Triton X-100 (available from Sigma-Aldrich Co., LLC, T8787-100ML), 0.2 mmol/L Ubiquinone-10 (available from FUJIFILM Wako Pure Chemical Corporation, 216-00761), 0.1 mmol/L DHO (L-dihydroorotic acid, available from Sigma-Aldrich Co., LLC, D7128), 0.5% DMSO (dimethylsulfoxide, available from FUJIFILM Wako Pure Chemical Corporation, 047-29353), 0.175 μg/mL DHODH, and 0.12 mmol/L DCIP and having a pH adjusted to 8.0 by adding 5 mol/L potassium hydroxide (available from FUJIFILM Wako Pure Chemical Corporation, 168-21815). A test compound with a predetermined concentration was added using Biomek NX (available from Beckman Coulter Inc.), and the enzyme reaction was started by adding the substrate. The enzyme activity was assessed by measuring the decrease in DCIP absorbance (600 nm) for 50 minutes using an EnVision plate-reading spectrophotometer (available from PerkinElmer, Inc.).
as §1, with “enzyme reaction” for “growth”, “enzyme reaction inhibition” for “growth inhibitory”, “[IC50” for “[GI50”, “Enzyme reaction” for “Growth”
The abbreviations in the table have the following meanings. • A: IC50 value<10 nmol/L • B: 10 nmol/L≤IC50 value<100 nmol/L • C: 100 nmol/L≤IC50 value

Row | Compound | GI50 [1] [nM] | IC50 (recombinant human DHODH) [nM]
1 | CCOc1c(Nc2ncc(C3CC3)cc2C(=O)O)ccc(F)c1C1=CCOCC1 [Example 2-15] | < 100 | < 10
2 | O=C(O)c1cc(C2CC2)ncc1Nc1cccc(C2=CCOCC2)c1OCC(F)(F)F [Example 2-16] | 100 to 1000 | < 10
3 | N#CNC(=O)c1nc(C2CC2)cnc1Nc1cccc(C2=CCOCC2)c1OCC(F)(F)F [Example 3-1] | < 100 | < 10
4 | N#CNC(=O)c1cc(C2CC2)ccc1Nc1cncc(C2=CCOCC2)c1OCC(F)(F)F [Example 3-2] | ≥ 1000 | < 10
5 | CONC(=O)c1nc(C2CC2)cnc1Nc1cccc(C2=CCOCC2)c1OCC(F)(F)F [Example 3-5] | < 100 | < 10
6 | N#CNC(=O)c1cc(C2CC2)cnc1Nc1cccc(C2CCOCC2)c1OCC(F)(F)F [Example 3-6] | < 100 | < 10
7 | NS(=O)(=O)NC(=O)c1nc(C2CC2)cnc1Nc1cccc(C2=CCOCC2)c1OCC(F)(F)F [Example 3-10] | < 100 | < 10
8 | CN(C)S(=O)(=O)NC(=O)c1nc(C2CC2)cnc1Nc1cccc(C2=CCOCC2)c1OCC(F)(F)F [Example 3-11] | ≥ 1000 | ≥ 100
9 | Cc1ccc(-c2cccc(Nc3ncc(C4CC4)nc3C(=O)NS(C)(=O)=O)c2OCC(F)(F)F)c(C)n1 [Example 3-15] | 100 to 1000 | 10 to 100
10 | Cc1cc(C#N)ccc1-c1cccc(Nc2ncc(C3CC3)nc2C(=O)NS(C)(=O)=O)c1OCC(F)(F)F [Example 3-16] | < 100 | < 10
11 | CCS(=O)(=O)NC(=O)c1nc(C2CC2)cnc1Nc1cccc(C2=CCOCC2)c1OCC(F)(F)F [Example 3-17] | ≥ 1000 | 10 to 100
12 | O=C(NS(=O)(=O)C(F)(F)F)c1nc(C2CC2)cnc1Nc1cccc(C2=CCOCC2)c1OCC(F)(F)F [Example 3-18] | ≥ 1000 | 10 to 100
13 | COS(=O)(=O)NC(=O)c1nc(C2CC2)cnc1Nc1cccc(C2=CCOCC2)c1OCC(F)(F)F [Example 3-19] | 100 to 1000 | 10 to 100
14 | CNS(=O)(=O)NC(=O)c1nc(C2CC2)cnc1Nc1cccc(C2=CCOCC2)c1OCC(F)(F)F [Example 3-20] | 100 to 1000 | 10 to 100
15 | O=C(NS(=O)(=O)C1CC1)c1nc(C2CC2)cnc1Nc1cccc(C2=CCOCC2)c1OCC(F)(F)F [Example 3-21] | ≥ 1000 | 10 to 100
16 | CS(=O)(=O)NC(=O)c1nc(C2CC2)cnc1Nc1cccc(-c2ccc(C#N)cc2)c1OCC(F)(F)F [Example 3-23] | < 100 | < 10
17 | CS(=O)(=O)NC(=O)c1cc(C2CC2)cnc1Nc1cccc(C2=CCOCC2)c1OCC(F)(F)F [Example 3-24] | < 100 | < 10
18 | C[C@H](Oc1c(Nc2ccc(C3CC3)cc2C(=O)NS(C)(=O)=O)cncc1C1=CCOCC1)C(F)(F)F [Example 3-25] | 100 to 1000 | 10 to 100
19 | C[C@H](Oc1c(Nc2ncc(C3CC3)nc2C(=O)NC#N)cccc1C1=CCOCC1)C(F)(F)F [Example 3-31] | < 100 | < 10
20 | N#CNC(=O)c1nc(C2CC2)cnc1Nc1cccc(-c2ccc(C#N)cc2)c1OCC(F)(F)F [Example 3-33] | < 100 | < 10
21 | CS(=O)(=O)NC(=O)c1cc(C2CC2)cnc1Nc1cccc(-c2ccc(C#N)cc2)c1OCC(F)(F)F [Example 3-36] | < 100 | < 10
22 | N#Cc1ccc(-c2cccc(Nc3ncc(C4CC4)cc3C(=O)NS(N)(=O)=O)c2OCC(F)(F)F)cc1 [Example 3-37] | < 100 | < 10
23 | N#CNC(=O)c1nc(C2CC2)cnc1Nc1cc(F)cc(C2=CCOCC2)c1OCC(F)(F)F [Example 3-38] | < 100 | < 10
24 | N#CNC(=O)c1cc(C2CC2)cnc1Nc1cccc(-c2ccc(C#N)cc2)c1OCC(F)(F)F [Example 3-39] | < 100 | < 10
25 | CS(=O)(=O)NC(=O)c1cc(C2CC2)cnc1Nc1cc(F)cc(C2CCOCC2)c1OCC(F)(F)F [Example 3-42] | < 100 | < 10
26 | CS(=O)(=O)NC(=O)c1nc(C2CC2)cnc1Nc1cccc(-c2cccc(C#N)c2)c1OCC(F)(F)F [Example 3-45] | < 100 | < 10
27 | CCc1c(Nc2ncc(C3CC3)cc2C(=O)NS(C)(=O)=O)cccc1C1CCOCC1 [Example 3-47] | 100 to 1000 | < 10
28 | CS(=O)(=O)NC(=O)c1nc(C2CC2)cnc1Nc1cccc(-c2ccc(C#N)cc2)c1OC(F)F [Example 3-51] | 100 to 1000 | < 10
29 | N#Cc1ccc(-c2cccc(Nc3ncc(C4CC4)nc3C(=O)NS(N)(=O)=O)c2OC(F)F)cc1 [Example 3-52] | 100 to 1000 | 10 to 100

The remaining lines, values ahead:

Row | GI50 [1] [nM] | IC50 (recombinant human DHODH) [nM] | Compound
30 | 100 to 1000 | < 10 | C[C@H](Oc1c(Nc2ncc(C3CC3)nc2C(=O)NS(N)(=O)=O)cccc1C1CCOCC1)C(F)(F)F [Example 3-7]
31 | 100 to 1000 | 10 to 100 | CONC(=O)c1nc(C2CC2)cnc1Nc1cccc(C2CCOCC2)c1O[C@@H](C)C(F)(F)F [Example 3-12]
32 | 100 to 1000 | 10 to 100 | C[C@H](Oc1c(Nc2ncc(C3CC3)nc2C(=O)NS(C)(=O)=O)cccc1C1CCOCC1)C(F)(F)F [Example 3-13]
33 | < 100 | < 10 | C[C@H](Oc1c(Nc2ncc(C3CC3)nc2C(=O)NC#N)cccc1C1CCOCC1)C(F)(F)F [Example 3-14]
34 | < 100 | < 10 | CCCc1c(Nc2ncc(C3CC3)nc2C(=O)NS(N)(=O)=O)cccc1C1CCOCC1 [Example 3-26]
35 | < 100 | < 10 | C[C@H](Oc1c(Nc2ncc(C3CC3)nc2C(=O)NS(N)(=O)=O)cccc1C1=CCOCC1)C(F)(F)F [Example 3-27]
36 | < 100 | < 10 | N#CNC(=O)c1nc(C2CC2)cnc1Nc1cccc(C2CCOCC2)c1OCC(F)(F)F [Example 3-29]
37 | < 100 | < 10 | C[C@H](Oc1c(Nc2ncc(C3CC3)nc2C(=O)NS(C)(=O)=O)cccc1C1=CCOCC1)C(F)(F)F [Example 3-32]
38 | < 100 | < 10 | CS(=O)(=O)NC(=O)c1cc(C2CC2)cnc1Nc1cccc(C2CCOCC2)c1OCC(F)(F)F [Example 3-34]
39 | < 100 | < 10 | NS(=O)(=O)NC(=O)c1cc(C2CC2)cnc1Nc1cccc(C2CCOCC2)c1OCC(F)(F)F [Example 3-35]
40 | 100 to 1000 | 10 to 100 | CCc1c(Nc2ncc(C3CC3)nc2C(=O)NS(C)(=O)=O)cccc1C1CCOCC1 [Example 3-48]
41 | < 100 | < 10 | CS(=O)(=O)NC(=O)c1nc(C2CC2)cnc1Nc1cccc(C2CCOCC2)c1OC(F)F [Example 3-49]
42 | < 100 | < 10 | NS(=O)(=O)NC(=O)c1nc(C2CC2)cnc1Nc1cccc(C2CCOCC2)c1OC(F)F [Example 3-50]
43 | < 100 | < 10 | NS(=O)(=O)NC(=O)c1nc(C2CC2)cnc1Nc1cc(F)cc(C2CCOCC2)c1OC(F)F [Example 3-53]
